# Laboratory results published in PubChem BioAssay (NCI).
#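 96-well plates; 48 h exposure; 5 concentrations. Endpoints by linear interpolation between flanking doses. Not reached: highest tested concentration assigned. Abbreviation: GI50, concentration required for 50% inhibition of growth. TGI: total growth inhibition.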
# Tests used:
# Test in all cases: inhibition of tumour cell growth, NCI panel, 48 h
# SW-620 colon = tested on: SW-620 colon
# IGROV1 ovarian = tested on: IGROV1 ovarian
# HS 578T breast = tested on: HS 578T breast
# UACC-257 melanoma = tested on: UACC-257 melanoma
# NCI-H23 lung = tested on: NCI-H23 lung
# HCC-2998 colon = tested on: HCC-2998 colon
# SK-MEL-5 melanoma = tested on: SK-MEL-5 melanoma
# OVCAR-3 ovarian = tested on: OVCAR-3 ovarian
# K-562 leukemia = tested on: K-562 leukemia
# OVCAR-8 ovarian = tested on: OVCAR-8 ovarian
Structure (SMILES),GI50 (SW-620 colon) [µM],TGI (SW-620 colon) [µM],GI50 (IGROV1 ovarian) [µM],TGI (IGROV1 ovarian) [µM],GI50 (HS 578T breast) [µM],TGI (HS 578T breast) [µM],GI50 (UACC-257 melanoma) [µM],TGI (UACC-257 melanoma) [µM],GI50 (NCI-H23 lung) [µM],TGI (NCI-H23 lung) [µM],GI50 (HCC-2998 colon) [µM],TGI (HCC-2998 colon) [µM],GI50 (SK-MEL-5 melanoma) [µM],TGI (SK-MEL-5 melanoma) [µM],GI50 (OVCAR-3 ovarian) [µM],TGI (OVCAR-3 ovarian) [µM],GI50 (K-562 leukemia) [µM],TGI (K-562 leukemia) [µM],GI50 (OVCAR-8 ovarian) [µM],TGI (OVCAR-8 ovarian) [µM]
CCN=c1sc2c(n1NC(=O)c1cc3ccc1CCc1ccc(cc1)CC3)C(=O)c1ccccc1C2=O,0.593,1.29,0.449,1.31,0.784,2.28,0.551,1.07,0.589,1.64,0.824,2.1,0.563,1.03,0.567,1.52,0.92,13,0.594,1.35
CN(C)CCCC1(c2ccc(F)cc2)OCc2cc(-c3cccc4[nH]ccc34)ccc21 (centres undefined),1.77,3.54,1.33,2.73,2.12,5.03,1.7,3.18,1.83,3.62,1.54,2.94,1.75,3.17,1.79,3.35,1.4,3.32,1.86,3.7
COc1ccc2c(N)ncc(C#Cc3cc(C(=O)Nc4ccc(CN5CCN(C)CC5)c(C(F)(F)F)c4)cnc3C)c2c1,0.578,1.3,0.437,2.11,0.847,4.2,1.78,9.22,1.89,8.79,1.42,5.36,1.86,5.32,1.31,5.29,0.00868,1.02,0.861,2.71
N#CC1c2ccccc2C=CN1C(=O)CCCl (centres undefined),2.36,6.53,6.68,13.8,17.4,47.3,13.1,26.5,17.6,40.9,16.9,32,16.6,30.6,2.51,6.1,4.03,60,14.4,30.6
O=C1NC(=N[C@@H](CO)c2ccccc2)S/C1=C\c1ccc2ncccc2c1,7.25,> 25,4.71,> 18.3,4.84,> 25,13.9,> 25,8.92,> 25,11.2,> 25,9.14,> 25,14.8,> 25,9.04,> 25,8.93,> 25
OC1(c2ccc(Cl)c(C(F)(F)F)c2)CCN(CCCC(c2ccc(F)cc2)c2ccc(F)cc2)CC1,0.76,1.43,0.975,2.05,0.857,1.93,0.826,1.51,0.83,1.62,0.762,1.43,0.797,1.47,0.888,1.63,0.781,1.75,0.823,1.53
CC1(C)N=C(N)N=C(N)N1c1ccc(CCC(=O)Nc2ccc(S(=O)(=O)F)cc2)cc1,0.371,> 100,0.0723,> 100,> 75.8,> 100,15.5,> 100,2.19,> 100,3.85,> 100,0.774,57,8.03,> 100,0.533,> 100,5.08,> 100
Cc1ccc2c(-c3ccnc(Nc4ccc5c(c4)OCCO5)n3)c(-c3ccc(C(F)(F)F)cc3)nn2n1,> 25,> 25,2.76,> 25,12.4,> 25,4.21,13.2,14.3,> 25,12.3,> 25,2.04,7.42,> 23.6,> 25,20.3,> 25,8.48,> 25
CCN(C)c1nc(N(C)CC)c2nc(N(C)CC)nc(N(C)CC)c2n1,–,> 100,–,> 100,–,> 100,–,> 100,–,> 100,–,> 100,–,> 100,–,> 100,–,> 100,–,> 100
CCn1cc(C(=O)O)c(=O)c2cc(F)c(N3CCN(S(=O)(=O)c4cccc5ccccc45)CC3)cc21,3.57,> 100,2.47,7.49,2.68,9.88,2.72,7.72,3.13,12.1,4.26,61.9,2.24,5.17,3.69,15.6,3.93,> 100,3.09,> 100
Cn1c([N+](=O)[O-])cnc1C=C1C(=O)c2ccccc2C1=O,3.34,13.1,3.56,18.5,2.43,8.71,3.12,14.7,4.9,20.5,13.5,32.2,8.67,21.9,4.67,14.8,3.34,16.3,2.18,6.54
CC(=O)ON1CCCC(P(=O)(OCOC(=O)C(C)(C)C)OCOC(=O)C(C)(C)C)C1=O (centres undefined),1.26,20.8,0.374,1.84,0.603,4.4,2.41,19.5,0.91,4.25,0.803,3.5,0.773,3.04,0.775,4.49,0.303,> 87.2,0.324,–
